Test results taken from US20220370416A1, “COMPOUNDS AND METHODS FOR TARGETED DEGRADATION OF KRAS” (Arvinas Operations, Inc., priority 2020, published 2022).

What was measured:
HiBit-KRAS^G12C [1] = target: T1, HiBit-KRAS^G12C (Homo sapiens, UniProt P01116, G12C); experiment: HiBit degradation assay in SW1573 HiBit-KRas^G12C cells; type: cell-based; parameters: expressed in transfected cells; host or cells: SW1573 (clone E6), modified pcDNA3.1 vector, TK promoter; details: 24 hours; for Dmax: SW1573, SW1573 HiBit-KRas^G12C, read-out: KRas^G12C-HiBiT (SW1573; 0.5% DMSO) Dmax**
T1 sequence (P01116 1-186 isoform P01116-2 G12C limits assumed): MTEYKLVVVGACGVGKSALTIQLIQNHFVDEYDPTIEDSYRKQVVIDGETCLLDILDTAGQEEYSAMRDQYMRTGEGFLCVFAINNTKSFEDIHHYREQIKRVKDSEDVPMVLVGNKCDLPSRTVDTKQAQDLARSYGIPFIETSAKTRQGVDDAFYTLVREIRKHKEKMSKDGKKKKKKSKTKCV
Outline: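 HiBit-KRAS G12C degradation was measured after a 24 h compound exposure (titrated 10 μM–20 nM) in engineered SW1573 cells. Lytic HiBit luminescence, expressed relative to DMSO controls, yielded DC50 and Dmax from 4-parameter fits. Concentrations causing ≥50% loss in alamar blue viability were omitted as cytotoxic.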

HiBit-KRAS^G12C [2] = target: T1, HiBit-KRAS^G12C; experiment: HiBit degradation assay in MiaPaCa-2 HiBit-KRas^G12C cells; type: cell-based; details: 24 hours
Outline: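 DC50 and Dmax come from 4-parameter fits of DMSO-normalized HiBit luminescence after 24 hours' exposure at 37° C to 10 μM–20 nM compound in 0.1% or 0.5% DMSO. Cells: MiaPaCa-2 carrying one endogenously HiBit-tagged KRAS^G12C allele; concentrations causing ≥50% […] viability loss (alamar blue) excluded.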

[3] = read-out: KRas^G12C-HiBiT (SW1573; 0.5% DMSO) IC50***, SW1573 HiBit-KRas^G12C, 0.5% DMSO
[4] = MIA PaCa-2, MiaPaCa-2 HiBit-KRas^G12C cells, 0.5% DMSO, maximum degradation, read-out: KRas^G12C-HiBiT (MiaPaCa; 0.5% DMSO) DMax
[5] = read-out: KRas^G12C-HiBiT (MiaPaCa; 0.5% DMSO) IC50, MiaPaCa-2 HiBit-KRas^G12C cells, 0.5% DMSO
[6] = SW1573 HiBit-KRas^G12C, 0.1% DMSO, read-out: KRas^G12C-HIBit (SW1573; 0.1% DMSO) DC50*
[7] = MIA PaCa-2, read-out: KRas^G12C-HiBiT (MiaPaCa; 0.1% DMSO) DMax, MiaPaCa-2 HiBit-KRas^G12C cells, 0.1% DMSO, maximum degradation

SMILES	DC50 (HiBit-KRAS^G12C [1]; [3])	Dmax (HiBit-KRAS^G12C [2]; [4])	DC50 (HiBit-KRAS^G12C [2]; [5])	DC50 (HiBit-KRAS^G12C [1]; [6])	also measured
C=C(F)C(=O)N1CCN(c2nc(OCCN3CCC(COc4cc([C@H](C(=O)N5C[C@H](O)C[C@H]5C(=O)N[C@@H](C)c5ccc(-c6ccnn6C)cc5)C(C)C)on4)CC3)nc3c(F)c(-c4cc(O)cc5ccccc45)c(Cl)cc23)C[C@@H]1CC#N (atropisomer, axis not shown) [Compound 141, (2S,4R)-1-[(2R)-2-[3-({1-[2-({6-chloro-4-[(3S)-3-(cyanomethyl)-4-(2-fluoroprop-2-enoyl)piperazin-1-yl]-8-fluoro-7-(3-hydroxynaphthalen-1-yl)quinazolin-2-yl}oxy)ethyl]-piperidin-4-yl}methoxy)-1,2-oxazol-5-yl]-3-methylbutanoyl]-4-hydroxy-N-[(1S)-1-[4-(1-methyl-1H-pyrazol-5-yl)phenyl]ethyl]pyrrolidine-2-carboxamide]	< 0.1 µM	> 70%	0.1 to 1 µM		Dmax (HiBit-KRAS^G12C [1]; 0.5% DMSO): > 70%
C=C(F)C(=O)N1CCN(c2nc(OCCN3CCC(F)(COc4cc([C@@H](C(=O)N5C[C@H](O)C[C@H]5C(=O)N[C@@H](C)c5ccc(-c6scnc6C)cc5)C(C)C)on4)CC3)nc3c(F)c(-c4cc(O)cc5ccccc45)c(Cl)cc23)C[C@@H]1CC#N (atropisomer, axis not shown) [Compound 122, (2S,4R)-1-[(2S)-2-[3-({1-[2-({6-chloro-4-[(3S)-3-(cyanomethyl)-4-(2-fluoroprop-2-enoyl)piperazin-1-yl]-8-fluoro-7-(3-hydroxynaphthalen-1-yl)quinazolin-2-yl}oxy)ethyl]-4-fluoropiperidin-4-yl}methoxy)-1,2-oxazol-5-yl]-3-methylbutanoyl]-4-hydroxy-N-[(1S)-1-[4-(4-methyl-1,3-thiazol-5-yl)phenyl]ethyl]pyrrolidine-2-carboxamide]	> 1 µM		> 1 µM		
C=CC(=O)N1CCN(c2nc(OCCN3CCC(COCC(=O)N[C@H](C(=O)N4C[C@H](O)C[C@H]4C(=O)N[C@@H](C)c4ccc(-c5scnc5C)cc4)C(C)(C)C)CC3)nc3c(F)c(-c4cc(O)cc5ccccc45)c(Cl)cc23)CC1 (atropisomer, axis not shown) [Compound 9, (2S,4R)-1-[(2S)-2-(2-{[1-(2-{[6-chloro-8-fluoro-7-(3-hydroxynaphthalen-1-yl)-4-[4-(prop-2-enoyl)piperazin-1-yl]quinazolin-2-yl]oxy}ethyl)piperidin-4-yl]methoxy}acetamido)-3,3-dimethylbutanoyl]-4-hydroxy-N-[(1S)-1-[4-(4-methyl-1,3-thiazol-5-yl)phenyl]ethyl]pyrrolidine-2-carboxamide]				0.1 to 1 µM	KRas^G12C-HiBit (SW1573; 0.1% DMSO) Dmax** (HiBit-KRAS^G12C [1]; SW1573 HiBit-KRas^G12C, 0.1% DMSO): A (A ≥ 70); KRas^G12C-HiBiT (MiaPaCa; 0.1% DMSO) DMax (HiBit-KRAS^G12C [2]; MiaPaCa-2 HiBit-KRas^G12C cells, 0.1% DMSO, maximum degradation): A (A ≥ 70); KRas^G12C-HiBiT (MiaPaCa; 0.5% DMSO) DMax (HiBit-KRAS^G12C [2]; MiaPaCa-2 HiBit-KRas^G12C cells, 0.5% DMSO, maximum degradation): A (A ≥ 70)
C=CC(=O)N1CCN(c2nc(OCCN3CCC(COCC(=O)N[C@H](C(=O)N4C[C@@H](O)C[C@H]4C(=O)N[C@@H](C)c4ccc(-c5scnc5C)cc4)C(C)(C)C)CC3)nc3c(F)c(-c4cc(O)cc5ccccc45)c(Cl)cc23)C[C@@H]1CC#N [Compound 6, (2S,4S)-1-[(2S)-2-[2-({1-[2-({6-chloro-4-[(3S)-3-(cyanomethyl)-4-(prop-2-enoyl)piperazin-1-yl]-8-fluoro-7-(3-hydroxynaphthalen-1-yl)quinazolin-2-yl}oxy)ethyl]piperidin-4-yl}methoxy)acetamido]-3,3-dimethylbutanoyl]-4-hydroxy-N-[(1S)-1-[4-(4-methyl-1,3-thiazol-5-yl)phenyl]ethyl]pyrrolidine-2-carboxamide]				> 1 µM	Dmax (HiBit-KRAS^G12C [2]; [7]): 35 to 70%
C=CC(=O)N1CCN(c2nc(OCCN3CCC(OCCOCC(=O)N[C@H](C(=O)N4C[C@@H](O)C[C@H]4C(=O)N[C@@H](C)c4ccc(-c5scnc5C)cc4)C(C)(C)C)CC3)nc3c(F)c(-c4cc(O)cc5ccccc45)c(Cl)cc23)C[C@@H]1CC#N [Compound 7, (2S,4S)-1-[(2S)-2-{2-[2-({1-[2-({6-chloro-4-[(3S)-3-(cyanomethyl)-4-(prop-2-enoyl)piperazin-1-yl]-8-fluoro-7-(3-hydroxynaphthalen-1-yl)quinazolin-2-yl}oxy)ethyl]piperidin-4-yl}oxy)ethoxy]acetamido}-3,3-dimethylbutanoyl]-4-hydroxy-N-[(1S)-1-[4-(4-methyl-1,3-thiazol-5-yl)phenyl]ethyl]pyrrolidine-2-carboxamide]				> 1 µM	Dmax (HiBit-KRAS^G12C [2]; [7]): 35 to 70%
C=CC(=O)N1CCN(c2nc(OCCN3CCC(COc4cc([C@H](C(=O)N5C[C@H](O)C[C@H]5C(=O)N[C@@H](C)c5ccc(-c6scnc6C)cc5)C(C)C)on4)CC3)nc3c(F)c(-c4cc(O)cc5ccccc45)c(Cl)cc23)CC1 (atropisomer, axis not shown) [Compound 146, (2S,4R)-1-[(2R)-2-(3-{[1-(2-{[6-chloro-8-fluoro-7-(3-hydroxynaphthalen-1-yl)-4-[4-(prop-2-enoyl)piperazin-1-yl]quinazolin-2-yl]oxy}ethyl)piperidin-4-yl]methoxy}-1,2-oxazol-5-yl)-3-methylbutanoyl]-4-hydroxy-N-[(1S)-1-[4-(4-methyl-1,3-thiazol-5-yl)phenyl]ethyl]pyrrolidine-2-carboxamide]	> 1 µM	35 to 70%	> 1 µM		
C=CC(=O)N1CCN(c2nc(O[C@H](C)CN3CCC(OCCN4CCN(CC(=O)N[C@H](C(=O)N5C[C@H](O)C[C@H]5C(=O)N[C@@H](C)c5ccc(-c6scnc6C)cc5)C(C)(C)C)CC4)CC3)nc3c(F)c(-c4cc(O)cc5ccccc45)c(Cl)cc23)CC1 [Compound 54, (2S,4R)-1-[(2S)-2-(2-{4-[2-({1-[(2R)-2-{[6-chloro-8-fluoro-7-(3-hydroxynaphthalen-1-yl)-4-[4-(prop-2-enoyl)piperazin-1-yl]quinazolin-2-yl]oxy}propyl]piperidin-4-yl}oxy)ethyl]piperazin-1-yl}acetamido)-3,3-dimethylbutanoyl]-4-hydroxy-N-[(1S)-1-[4-(4-methyl-1,3-thiazol-5-yl)phenyl]ethyl]pyrrolidine-2-carboxamide]				< 0.1 µM	DC50 (HiBit-KRAS^G12C [2]; read-out: KRas^G12C-HiBiT (MiaPaCa; 0.1% DMSO) IC50, MiaPaCa-2 HiBit-KRas^G12C cells, 0.1% DMSO): > 1 µM
C=CC(=O)N1CCN(c2nc(OCCN3CCC(F)(COCC(=O)N[C@H](C(=O)N4C[C@H](O)C[C@H]4C(=O)N[C@@H](C)c4ccc(-c5scnc5C)cc4)C(C)(C)C)CC3)nc3c(F)c(-c4cc(O)cc5ccccc45)c(Cl)cc23)C[C@@H]1CC#N [Compound 150, (2S,4R)-1-[(2S)-2-[2-({1-[2-({6-chloro-4-[(3S)-3-(cyanomethyl)-4-(prop-2-enoyl)piperazin-1-yl]-8-fluoro-7-(3-hydroxynaphthalen-1-yl)quinazolin-2-yl}oxy)ethyl]-4-fluoropiperidin-4-yl}methoxy)acctamido]-3,3-dimethylbutanoyl]-4-hydroxy-N-[(1S)-1-[4-(4-methyl-1,3-thiazol-5-yl)phenyl]ethyl]pyrrolidine-2-carboxamide]	0.1 to 1 µM	> 70%	> 1 µM		Dmax (HiBit-KRAS^G12C [1]; 0.5% DMSO): > 70%
C=C(F)C(=O)N1CCN(c2nc(OCCN3CCC(COc4cc([C@H](C(=O)N5C[C@H](O)C[C@H]5C(=O)N[C@@H](C)c5ccc(-c6ccnn6C)cc5)C(C)C)on4)CC3)nc3c(F)c(-c4cc(O)cc5ccccc45)c(Cl)cc23)C[C@@H]1CC#N [Compound 156, (2S,4R)-1-[(2R)-2-[3-({1-[2-({6-chloro-4-[(3S)-3-(cyanomethyl)-4-(2-fluoroprop-2-enoyl)piperazin-1-yl]-8-fluoro-7-(3-hydroxynaphthalen-1-yl)quinazolin-2-yl}oxy)ethyl]piperidin-4-yl}methoxy)-1,2-oxazol-5-yl]-3-methylbutanoyl]-4-hydroxy-N-[(1S)-1-[4-(1-methyl-1H-pyrazol-5-yl)phenyl]ethyl]pyrrolidine-2-carboxamide]	< 0.1 µM		0.1 to 1 µM		
